This assay addresses DNA-PK (Homo sapiens, UniProt P78527). In words: SelectScreen Z'LYTE. In kind it is biochemical. Details: purchased Thermo Fisher Scientific (Life Technologies) SelectScreen. To be noted: ATP Km app. As to the method: The in vitro kinase selectivity of NU5455 was determined using the SelectScreen Broad Assay Panel (Thermo Fisher Scientific) involving activity and binding assays (Supplemental Table 1). […] Class IA PI3Ks were measured using the p85α subunit.
Kinase [ATP] % Assay Kinase [ATP] % Assay Kinase [ATP] % Assay Kinase [ATP] % Assay
DNA-PK Km app 98.3 Z LATS2 n/a 4.7 L KIT D820E n/a 1.3 L GSK3B (GSK3 beta) Km app -2.5 Z
PIK3C3 (hVPS34) Km app 85.9 A PRKCZ (PKC zeta) Km app 4.7 Z GRK1 n/a 1.3 L BMPR2 n/a -2.5 L
PIK3C2B (PI3K-C2 beta) 10 28.9 A FGFR1 Km app 4.7 Z BRSK2 n/a 1.2 L CDC42 BPB (MRCKB) Km app -2.5 Z
SNF1LK2 Km app 26.6 Z MINK1 Km app 4.6 Z NUAK1 (ARK5) Km app 1.2 A AMPK (A2/B2/G2) n/a -2.6 L
HCK Km app 18.0 Z CSF1R (FMS) Km app 4.3 Z CDK9/cyclin K n/a 1.0 L PRKG1 Km app -2.7 Z
NEK2 Km app 17.8 Z CSNK1G3 (CK1 gamma 3) Km app 4.2 Z NUAK2 n/a 1.0 L KIT T670E n/a -2.8 L
ALK Km app 17.3 Z STK32C (YANK3) n/a 4.2 L CDK2/cyclin O n/a 0.9 L ERBB4 (HER4) Km app -2.8 Z
FGFR3 K650M n/a 16.5 L STK22D (TSSK1) Km app 4.2 Z CAMKK2 (CaMKK beta) n/a 0.9 L PLK4 n/a -2.8 L
SIK3 n/a 16.1 L TAOK3 (JIK) n/a 4.2 L FGFR3 Km app 0.9 Z GRK7 Km app -3.0 Z
LYN A Km app 15.2 Z RPS6KA4 (MSK2) Km app 4.2 Z ULK2 n/a 0.9 L MAPKAPK2 Km app -3.1 Z
BMPR1B (ALK6) n/a 14.5 L PTK2B (FAK2) Km app 4.2 Z KIT D816V n/a 0.9 L FGFR4 Km app -3.1 Z
INSRR (IRR) Km app 14.1 Z CLK2 Km app 4.1 Z CAMK1 (CaMK1) 10 0.8 A CASK n/a -3.1 L […]

The results in this text go back to article PMC6934184, “Selective DNA-PKcs inhibition extends the therapeutic index of localized radiotherapy and chemotherapy” (The Journal of Clinical Investigation, 2019).

Consider `CN(C(=O)CN1CCOCC1)c1ccc2sc3c(-c4cccc5c(=O)cc(N6CC7CCC(C6)O7)oc45)cccc3c2c1` [NU5455], for which at 1 µM the inhibition was 98.3%. Besides, under “1 µM”, the % inhibition (in general, the drop in the measured response relative to a control, in per cent) came to 98%.
